Results published in patent US6703214B2, “Lipid uptake assays” (Devgen NV, priority 2000, dated 2004).

Key:
[1] = test system: C. elegans; test: Fatty acid uptake assay after overnight compound incubation (activation of FATPs), C4-BODIPY-C9 probe; type: in vivo
Procedure: A fixed amount of probe is then distributed in the microtiter wells. The nematodes are incubated for one hour at room temperature in presence or absence of molecules to be tested. The microtiter plate is rinsed 3 to 4 times, using a standard plate washer (Wellwash, Labsystems, Zellik, Belgium), taking care to perform the aspiration sufficiently distant from the bottom of the well to avoid any loss of nematodes remaining at the bottom. The fluorescence intensity is then measured using a fluorescence microtiter plate reader, using a standard set of fluorescein filters.
Retinoic acid and troglutazones are activators of RXR and PPARγ respectively. C. elegans worms were incubated with these compounds in a range from 100 μM to 0.1 μM for a time period between 1 to 6 hours. Fatty acid uptake was measured using the microtiter plate assay described above.
More particularly, constitutive pharynx pumping worms in late L4 stage or young adults were incubated overnight on agar plates with different concentrations of the retinoic acid or troglutazone (e.g. Rosiglitazon). The compounds were added as solutions in 1 ml M9. After overnight incubation, these worms were further incubated for 1 h with 50 μM C4-BODIPY-C9 in 1 ml M9 on the same agar plates. After incubation the worms were washed three times and dispensed with the worm dispenser, up to 50 worms per well in the multi-well plates. Fluorescence intensity was measured using a microtiter plate reader, as described above.

[2] = test system: wild type (N2) C. elegans; test: Lipid uptake assay with quenched probe (QBFA) in liquid culture after overnight compound incubation on agar plates; type: in vivo; conditions: L4 stage worms, about 16 h with various concentrations; 10 μM QBFA, fluorescence read after 2 hours; FIG. 21
Procedure: Standard 9 cm agar plates were seeded with E. coli (any strain suitable for use in culture of C. elegans may be used). 1 ml volume of rosiglitazone at various concentrations was added to the plates and the plates seeded with L4 stage C. elegans. After an overnight incubation (approximately 16 h), the C. elegans were isolated and washed three times with approximately 15 ml M9 buffer. The worms were then re-suspended into microtiter plates, at 100 worms per well. Quenched probe (QBFA) was added at a final concentration of 10 μM in a total volume of 100 μl. Fluorescence measurements were taken after 2 hours in an automated plate reader. Typical results are illustrated in FIG. 21.

CN(CCOc1ccc(CC2SC(=O)NC2=O)cc1)c1ccccn1 (stereo not shown) [Rosiglitazon]
increase in fatty acid uptake ([1]; constitutive pharynx pumping worms, late L4/young adults, overnight incubation with compound on agar plates, 1 h with 50 μM C4-BODIPY-C9, FIG. 8): 5 fold
increase in fatty acid uptake, also observed at low concentration ([1]; only 3 μM of Rosiglitazon applied, otherwise as E1): 5 fold
effect on lipid uptake (in words) [2]: have an effect on lipid uptake

troglutazone
effect on fatty acid uptake (in words) ([1]; increased expression of FATP by applying the compound): clearly enhanced fatty acid uptake
